Reference: ChEMBL document CHEMBL1201862, “PubChem BioAssay data set” (2004)
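Each compound was tested at five concentrations against cells in 96-well plates for 48 hours. GI50: concentration for 50% inhibition of growth.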 Activity calls are given as the source filed them. Rule as the data show it: active = GI50 up to about 1.1 µM and inactive = higher.

Assays:
Test in all cases: inhibition of tumour cell growth, NCI panel, 48 h
[1] = system: 786-0
[2] = system: A549
[3] = system: ACHN
[4] = system: CAKI-1
[5] = system: CCRF-CEM
[6] = system: COLO 205
[7] = system: DU-145
[8] = system: EKVX
[9] = system: HCC 2998
[10] = system: HCT-116
[11] = system: HCT-15
[12] = system: HL-60
[13] = system: HOP-62
[14] = system: HOP-92
[15] = system: HT-29
[16] = system: Hs-578T
[17] = system: IGROV-1
[18] = system: K562
[19] = system: KM12
[20] = system: LOX IMVI
[21] = system: M14
[22] = system: MCF7
[23] = system: MDA-MB-231
[24] = system: MDA-MB-435
[25] = system: MDA-N
[26] = system: MOLT-4
[27] = system: Malme-3M
[28] = system: NCI-H226
[29] = system: NCI-H23
[30] = system: NCI-H460
[31] = system: NCI-H522
[32] = system: NCI/ADR-RES
[33] = system: OVCAR-3
[34] = system: OVCAR-4
[35] = system: OVCAR-5
[36] = system: OVCAR-8
[37] = system: PC-3
[38] = system: RPMI-8226
[39] = system: RXF 393
[40] = system: SF-268
[41] = system: SF-295
[42] = system: SF-539
[43] = system: SK-MEL-28
[44] = system: SK-MEL-2
[45] = system: SK-MEL-5
[46] = system: SK-OV-3
[47] = system: SN12C
[48] = system: SNB-19
[49] = system: SNB-75
[50] = system: SR
[51] = system: SW-620
[52] = system: T47D
[53] = system: TK-10
[54] = system: U-251
[55] = system: UACC-257
[56] = system: UACC-62
[57] = system: UO-31

Measured: GI50

Cc1cc(=O)oc2c(CNC(Cc3ccccc3)C(=O)O)c(O)ccc12 (stereo not drawn)
> 100 µM: [11]
inactive: [1] > 100 µM | [2] > 100 µM | [3] > 100 µM | [4] > 100 µM | [5] > 100 µM | [6] > 100 µM | [7] > 100 µM | [8] > 100 µM | [9] > 100 µM | [10] > 100 µM | [12] > 100 µM | [13] > 100 µM | [14] > 100 µM | [15] > 100 µM | [16] > 100 µM | [17] > 100 µM | [18] > 100 µM | [19] > 100 µM | [20] > 100 µM | [21] > 100 µM | [22] > 100 µM | [23] > 100 µM | [24] > 100 µM | [25] > 100 µM | [26] > 100 µM | [27] 61.5 µM | [28] > 100 µM | [29] > 100 µM | [30] > 100 µM | [31] > 100 µM | [32] > 100 µM | [33] > 100 µM | [34] > 100 µM | [35] > 100 µM | [36] > 100 µM | [37] > 100 µM | [38] > 100 µM | [39] > 100 µM | [40] > 100 µM | [41] > 100 µM | [42] > 100 µM | [43] > 100 µM | [44] > 100 µM | [45] > 100 µM | [46] > 100 µM | [47] > 100 µM | [48] > 100 µM | [49] 82.2 µM | [50] > 100 µM | [51] > 100 µM | [52] > 100 µM | [53] > 100 µM | [54] > 100 µM | [55] > 100 µM | [56] > 100 µM | [57] 73.3 µM

CN(COC(=O)c1ccccc1)c1nc(N(C)COC(=O)c2ccccc2)nc(N(C)COC(=O)c2ccccc2)n1
> 100 µM: [11]
inactive: [1] 11.4 µM | [2] > 100 µM | [3] 21.2 µM | [4] 57.7 µM | [5] > 100 µM | [6] > 100 µM | [7] > 100 µM | [8] > 83.6 µM | [9] > 100 µM | [10] 44.5 µM | [12] > 100 µM | [13] 14.7 µM | [14] 13.1 µM | [15] > 100 µM | [16] 22.4 µM | [17] 28.8 µM | [18] > 27.4 µM | [19] > 100 µM | [20] > 100 µM | [21] > 86.3 µM | [22] > 71.9 µM | [23] 15.7 µM | [24] > 100 µM | [25] > 100 µM | [26] > 100 µM | [27] > 100 µM | [28] 30.4 µM | [29] 41.5 µM | [30] > 69.5 µM | [31] 52.4 µM | [32] 50.1 µM | [33] > 84.1 µM | [34] 47.5 µM | [35] > 100 µM | [36] 39.4 µM | [37] > 100 µM | [38] > 100 µM | [39] 7.83 µM | [40] 21.8 µM | [41] 23.9 µM | [42] 12.2 µM | [43] > 100 µM | [45] > 100 µM | [46] > 65.2 µM | [47] > 100 µM | [48] 16.5 µM | [49] > 94.6 µM | [50] > 100 µM | [51] > 100 µM | [52] 28.8 µM | [53] 20.3 µM | [54] 20.2 µM | [55] > 91.4 µM | [56] > 60.7 µM | [57] > 83.9 µM
